{
  "source": "patent US11993584B2",
  "about": "“Solid forms of an azolopyrimidine compound” (ARCUS BIOSCIENCES, INC., priority 2018, dated 2024)",
  "key": {"A2BR": {"biological_target": "T1, A2BR (Homo sapiens, UniProt P29275)", "T1 sequence (P29275 1-332)": "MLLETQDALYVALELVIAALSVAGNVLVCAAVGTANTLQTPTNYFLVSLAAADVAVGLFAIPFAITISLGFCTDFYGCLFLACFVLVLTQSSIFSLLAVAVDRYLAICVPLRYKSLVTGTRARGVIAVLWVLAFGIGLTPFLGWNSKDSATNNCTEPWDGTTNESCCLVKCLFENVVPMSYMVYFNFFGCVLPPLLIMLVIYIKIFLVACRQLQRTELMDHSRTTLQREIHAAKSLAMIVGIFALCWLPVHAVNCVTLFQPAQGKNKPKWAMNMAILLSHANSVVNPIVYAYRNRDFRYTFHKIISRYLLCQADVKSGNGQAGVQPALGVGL", "conditions": "antagonist; has been reported (U.S. Ser. No. 15/875,106, PCT/US18/14352); cited from earlier work"}, "A2AR": {"biological_target": "A2AR (Homo sapiens, UniProt P29274)", "sequence (P29274 whole entry)": "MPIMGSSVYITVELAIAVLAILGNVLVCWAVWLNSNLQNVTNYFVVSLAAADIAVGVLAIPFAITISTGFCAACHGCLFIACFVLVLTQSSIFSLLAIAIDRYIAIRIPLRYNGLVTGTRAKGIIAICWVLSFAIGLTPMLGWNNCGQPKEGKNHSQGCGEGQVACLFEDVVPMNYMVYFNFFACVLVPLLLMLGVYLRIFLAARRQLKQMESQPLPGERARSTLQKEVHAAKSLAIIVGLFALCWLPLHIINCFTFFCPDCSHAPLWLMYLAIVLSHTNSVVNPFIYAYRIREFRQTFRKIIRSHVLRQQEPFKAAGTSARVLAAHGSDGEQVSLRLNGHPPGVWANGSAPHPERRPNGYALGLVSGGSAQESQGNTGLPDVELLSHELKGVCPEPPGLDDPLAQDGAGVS", "conditions": "antagonist; has been reported (U.S. Ser. No. 15/875,106, PCT/US18/14352); cited from earlier work"}, "[1]": {"test": "Solid-state stability of Form I under stress storage, analysis by HPLC and XRPD", "assay_type": "physicochemical", "experimental": "XRPD analysis was carried out on a PANalytical X'pert pro, scanning the samples between 3 and […] 2θ. The material was gently ground to release any agglomerates and loaded onto a multi-well plate with Kapton or Mylar polymer film to support the sample. The multi-well plate was then placed into the diffractometer and analyzed using Cu K radiation (α1λ=1.54060 Å; α2=1.54443 Å; β=1.39225 Å; α1: α2 ratio=0.5) running in transmission mode (step size 0.0130° 2θ) using 40 kV/40 mA generator settings.\n• Instrument: Agilient 1100 • Column: Zorbax Eclipse Plus C18 150 mm×3.0 mm, 3.5 μm particle size • Column Temperature: 35° C. • Autosampler Temperature: Ambient • UV wavelength: 228 nm • Injection Volume: 3 μL • Flow Rate: 1 mL/min • Mobile Phase A: Water (0.1% formic acid in 95:5 water:ACN) • Mobile Phase B: ACN (0.1% formic acid) • Gradient program: […]\nVials containing a quantity of Form I of Compound I were subjected to a temperature of 40° C. at 75% relative humidity (RH) for one week. […] Additionally, vials containing a quantity of the crystalline material were subjected to a temperature of 80° C. in a closed vial for one week."}, "[2]": {"test": "Dynamic vapor sorption (DVS) hygroscopicity", "assay_type": "physicochemical", "experimental": "Approximately 10 mg of sample was placed into a mesh vapor sorption balance pan and loaded into a DVS-1, DVS Intrinsic or DVS Advantage dynamic vapor sorption balance by Surface Measurement Systems. The sample was subjected to a ramping profile from 40-90% relative humidity (RH) at 10% increments, maintaining the sample at each step until a stable weight had been achieved (dm/dt 0.004%, minimum step length 30 min, maximum step length 500 min) at 25° C. After completion of the sorption cycle, the sample was dried using the same procedure to 0% RH and then a second sorption cycle back to 40% RH. Two cycles were performed. The weight change during the sorption/desorption cycles were plotted, allowing for the hygroscopic nature of the sample to be determined. XRPD analysis was then carried out on any solid retained.\nA quantity of Compound I Form I was analyzed by dynamic vapor sorption (DVS). The sample was subjected to a ramping profile from 40-90% RH at 10% increments, maintaining the sample at each step until a stable weight had been achieved at 25° C. After completion of the sorption cycle, the sample was dried using the same procedure to 0% RH and then a second sorption cycle back to 40% RH. Two cycles were performed. The weight change during the sorption/desorption cycles were plotted, allowing for the hygroscopic nature of the sample to be determined."}, "[3]": {"test": "Competitive 1:1 slurry experiments of the two forms", "assay_type": "physicochemical", "conditions": "1:1 slurry of Form I and Form III, variety of solvents"}, "[4]": {"test": "Qualitative dissolution of amorphous Compound I in solvents", "assay_type": "physicochemical", "conditions": "40 mg sample", "experimental": "Amorphous Compound I was produced by dissolving Compound I in 1,4-dioxane and subsequent lyophilization. The amorphous solid form was confirmed by the lack of indicative peaks by XRPD. To the amorphous Compound I, solvent was added to the 12×40 mg samples to prepare slurries for thermal cycling. The material was readily soluble in many of the 12 solvents and therefore, several of the samples were thermally cycled as saturated solutions."}},
  "data": [
    {"smiles": "Cc1c(C#N)cccc1-c1cc(-c2cn(Cc3cccc(C(C)(C)O)n3)nn2)nc(N)n1", "note": "[Compound I, 3-[2-amino-6-(1-{[6-(2-hydroxypropan-2-yl)pyridin-2-yl]methyl}-1H-1,2,3-triazol-4-yl)pyrimidin-4-yl]-2-methylbenzonitrile]", "values": [
      {"measurement": "potency on A2BR", "setting": "A2BR", "value": "less than 10 nM"},
      {"measurement": "potency on A2AR", "setting": "A2AR", "value": "less than 10 nM"}
    ]},
    {"smiles": "Cc1c(C#N)cccc1-c1cc(-c2cn(Cc3cccc(C(C)(C)O)n3)nn2)nc(N)n1", "note": "[Form I of Compound I, 3-[2-amino-6-(1-{[6-(2-hydroxypropan-2-yl)pyridin-2-yl]methyl}-1H-1,2,3-triazol-4-yl)pyrimidin-4-yl]-2-methylbenzonitrile]", "values": [
      {"measurement": "stability (decomposition, morphology change) by HPLC and XRPD", "setting": "[1]; 40° C. at 75% relative humidity (RH) for one week", "value": "stable with no decomposition or morphology change observed"},
      {"measurement": "stability (decomposition, morphology change) by HPLC and XRPD", "setting": "[1]; 80° C. in a closed vial for one week", "value": "stable with no decomposition or change in morphology observed"},
      {"measurement": "hygroscopic nature", "setting": "[2]; DVS, 25° C.", "value": "slightly hygroscopic"},
      {"measurement": "XRPD analysis of resultant solid after DVS", "setting": "[2]; after two sorption/desorption cycles", "value": "no change in morphology observed"},
      {"measurement": "maximum absorption of water (DVS)", "setting": "[2]; at 90% relative humidity, 25° C., 0-90% RH range, reversible", "value": 1.1, "unit": "%"},
      {"measurement": "hysteresis upon cycling (DVS)", "setting": "[2]; two cycles, 0-90% RH", "value": "No hysteresis was observed"}
    ]},
    {"smiles": "Cc1c(C#N)cccc1-c1cc(-c2cn(Cc3cccc(C(C)(C)O)n3)nn2)nc(N)n1", "note": "[Form III, 3-[2-amino-6-(1-{[6-(2-hydroxypropan-2-yl)pyridin-2-yl]methyl}-1H-1,2,3-triazol-4-yl)pyrimidin-4-yl]-2-methylbenzonitrile]", "values": [
      {"measurement": "form conversion in competitive slurry", "setting": "[3]", "value": "converted to Form I"}
    ]},
    {"smiles": "Cc1c(C#N)cccc1-c1cc(-c2cn(Cc3cccc(C(C)(C)O)n3)nn2)nc(N)n1", "note": "[amorphous Compound I, 3-[2-amino-6-(1-{[6-(2-hydroxypropan-2-yl)pyridin-2-yl]methyl}-1H-1,2,3-triazol-4-yl)pyrimidin-4-yl]-2-methylbenzonitrile]", "values": [
      {"measurement": "Slurry or Solution", "setting": "[4]; 1,4-Dioxane, 200 μL", "value": "Solution"},
      {"measurement": "Slurry or Solution", "setting": "[4]; 2-Ethoxyethanol, 200 μL", "value": "solution"},
      {"measurement": "Slurry or Solution", "setting": "[4]; 25% Acetone/75% water, 200 μL", "value": "Solution"},
      {"measurement": "Slurry or Solution", "setting": "[4]; 25% MeCN/75% water, 300 μL", "value": "Slurry"},
      {"measurement": "Slurry or Solution", "setting": "[4]; Isopropanol, 400 μL", "value": "Slurry"},
      {"measurement": "Slurry or Solution", "setting": "[4]; Isopropyl acetate, 200 μL", "value": "Solution"},
      {"measurement": "Slurry or Solution", "setting": "[4]; Methanol, 200 μL", "value": "Solution"},
      {"measurement": "Slurry or Solution", "setting": "[4]; THF, 200 μL", "value": "Solution"},
      {"measurement": "Slurry or Solution", "setting": "[4]; Toluene, 700 μL", "value": "Slurry"},
      {"measurement": "Slurry or Solution", "setting": "[4]; acetonitrile, 400 μL", "value": "Slurry"},
      {"measurement": "Slurry or Solution", "setting": "[4]; dichloromethane, 200 μL", "value": "Solution"},
      {"measurement": "Slurry or Solution", "setting": "[4]; water, 700 μL", "value": "slurry"}
    ]}
  ]
}
